Results reported in patent US12077503B2, “Substituted cyclic amides and their use as herbicides” (FMC CORPORATION, priority 2015, dated 2024).

Experiments:
Format in all cases: in vivo
[1] = system: barnyardgrass (Echinochloa crus-galli); assay: Test G Pre-Emergence Protocol; conditions: Echinochloa crus-galli, pre-emergence, 312 h, evaluated after 13 days; for pest or weed control at 15.625 g/ha: 15.625 g ai/ha, read-out: Barnyard grass damage rating (100=total damage to plant; 0=no damage to plant); for pest or weed control at 62.5 g/ha: 62.5 g ai/ha, 100=total damage to plant, 0=no damage to plant, read-out: plant damage rating, Barnyardgrass; for pest or weed control at 250 g/ha: 250 g ai/ha, read-out: Barnyardgrass damage rating (100=total damage to plant; 0=no damage to plant)
Summary of the method: (§1)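 Under a 24/16° C day/night regime with 14 h light and 65% humidity, sown pots were sprayed after one day with compound (15.625, 62.5 or 250 g/ha; 50:50 acetone/water, 0.5% Tween 20). Damage was assessed visually 13 days later, 0 to 100.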

corn (Zea mays) [2] = assay: Test G Pre-Emergence Protocol; conditions: Zea mays, pre-emergence, 312 h, evaluated after 13 days; for plant injury at 15.625 g/ha: 15.625 g ai/ha; for plant injury at 15.625 g/ha / plant injury at 250 g/ha: read-out: Corn damage rating (100=total damage to plant; 0=no damage to plant); for plant injury at 62.5 g/ha: 62.5 g ai/ha, 100=total damage to plant, 0=no damage to plant, read-out: plant damage rating, Corn; for plant injury at 250 g/ha: 250 g ai/ha
Summary of the method: as §1

[3] = system: giant foxtail (Setaria faberi); assay: Test G Pre-Emergence Protocol; conditions: Setaria faberi, pre-emergence, 312 h, evaluated after 13 days; for pest or weed control at 15.625 g/ha: 15.625 g ai/ha; for pest or weed control at 15.625 g/ha / pest or weed control at 250 g/ha: read-out: Foxtail, Giant damage rating (100=total damage to plant; 0=no damage to plant); for pest or weed control at 62.5 g/ha: 62.5 g ai/ha, 100=total damage to plant, 0=no damage to plant, read-out: plant damage rating, Foxtail, Giant; for pest or weed control at 250 g/ha: 250 g ai/ha
Summary of the method: as §1

[4] = system: ivy-leaved morning glory (Ipomoea hederacea); assay: Test G Pre-Emergence Protocol; conditions: Ipomoea, pre-emergence, 312 h, evaluated after 13 days; for pest or weed control at 15.625 g/ha: 15.625 g ai/ha, read-out: Morning-glory, Ivy-leaved damage rating (100=total damage to plant; 0=no damage to plant); for pest or weed control at 62.5 g/ha: 62.5 g ai/ha, 100=total damage to plant, 0=no damage to plant, read-out: plant damage rating, Morningglory, Ivy-leaved; for pest or weed control at 250 g/ha: 250 g ai/ha, read-out: Morningglory, Ivy-leaved damage rating (100=total damage to plant; 0=no damage to plant)
Summary of the method: as §1

[5] = system: redroot pigweed (Amaranthus retroflexus); assay: Test G Pre-Emergence Protocol; conditions: Amaranthus retroflexus, pre-emergence, 312 h, evaluated after 13 days; for pest or weed control at 15.625 g/ha: 15.625 g ai/ha; for pest or weed control at 15.625 g/ha / pest or weed control at 250 g/ha: read-out: Pigweed, Redroot damage rating (100=total damage to plant; 0=no damage to plant); for pest or weed control at 62.5 g/ha: 62.5 g ai/ha, 100=total damage to plant, 0=no damage to plant, read-out: plant damage rating, Pigweed, Redroot; for pest or weed control at 250 g/ha: 250 g ai/ha
Summary of the method: as §1

[6] = system: velvetleaf (Abutilon theophrasti); assay: Test G Pre-Emergence Protocol; conditions: Abutilon theophrasti, pre-emergence, 312 h, evaluated after 13 days; for pest or weed control at 15.625 g/ha: 15.625 g ai/ha; for pest or weed control at 15.625 g/ha / pest or weed control at 250 g/ha: read-out: Velvetleaf damage rating (100=total damage to plant; 0=no damage to plant); for pest or weed control at 62.5 g/ha: 62.5 g ai/ha, 100=total damage to plant, 0=no damage to plant, read-out: plant damage rating, Velvetleaf; for pest or weed control at 250 g/ha: 250 g ai/ha
Summary of the method: as §1

[7] = system: barnyardgrass (Echinochloa crus-galli); assay: Test G Post-Emergence Protocol; conditions: Echinochloa crus-galli, post-emergence, 312 h; for pest or weed control at 15.625 g/ha: 15.625 g ai/ha, evaluated after 13 days (100=total damage to plant; 0=no damage to plant), read-out: Barnyardgrass damage rating; for pest or weed control at 62.5 g/ha: 62.5 g ai/ha, read-out: Barnyardgrass damage rating (100=total damage to plant; 0=no damage to plant); for pest or weed control at 62.5 g/ha / pest or weed control at 250 g/ha: evaluated after 13 days; for pest or weed control at 250 g/ha: 250 g ai/ha, read-out: damage to plant, Barnyardgrass (100=total damage to plant; 0=no damage to plant)
Summary of the method: (§2)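 A glasshouse post-emergence test: 8-day-old plants sprayed at 15.625, 62.5 or 250 g/ha, then grown at 24/16 °C day/night with 14 h light and 65% humidity. Damage rated 13 days later, 0–100.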

corn (Zea mays) [8] = assay: Test G Post-Emergence Protocol; conditions: Zea mays, post-emergence, 312 h; for plant injury at 15.625 g/ha: 15.625 g ai/ha, evaluated after 13 days (100=total damage to plant; 0=no damage to plant), read-out: Corn damage rating; for plant injury at 62.5 g/ha: 62.5 g ai/ha, read-out: Corn damage rating (100=total damage to plant; 0=no damage to plant); for plant injury at 62.5 g/ha / plant injury at 250 g/ha: evaluated after 13 days; for plant injury at 250 g/ha: 250 g ai/ha, read-out: damage to plant, Corn (100=total damage to plant; 0=no damage to plant)
Summary of the method: as §2

[9] = system: giant foxtail (Setaria faberi); assay: Test G Post-Emergence Protocol; conditions: Setaria faberi, post-emergence, 312 h; for pest or weed control at 15.625 g/ha: 15.625 g ai/ha, evaluated after 13 days (100=total damage to plant; 0=no damage to plant), read-out: Foxtail, Giant damage rating; for pest or weed control at 62.5 g/ha: 62.5 g ai/ha, read-out: Foxtail, Giant damage rating (100=total damage to plant; 0=no damage to plant); for pest or weed control at 62.5 g/ha / pest or weed control at 250 g/ha: evaluated after 13 days; for pest or weed control at 250 g/ha: 250 g ai/ha, read-out: damage to plant, Foxtail, Giant (100=total damage to plant; 0=no damage to plant)
Summary of the method: as §2

[10] = system: ivy-leaved morning glory (Ipomoea hederacea); assay: Test G Post-Emergence Protocol; conditions: Ipomoea, post-emergence, 312 h; for pest or weed control at 15.625 g/ha: 15.625 g ai/ha, evaluated after 13 days (100=total damage to plant; 0=no damage to plant), read-out: Morningglory, Ivy-leaved damage rating; for pest or weed control at 62.5 g/ha: 62.5 g ai/ha, read-out: Morningglory, Ivy-leaved damage rating (100=total damage to plant; 0=no damage to plant); for pest or weed control at 62.5 g/ha / pest or weed control at 250 g/ha: evaluated after 13 days; for pest or weed control at 250 g/ha: 250 g ai/ha, read-out: damage to plant, Morningglory, Ivy-leaved (100=total damage to plant; 0=no damage to plant)
Summary of the method: as §2

[11] = system: redroot pigweed (Amaranthus retroflexus); assay: Test G Post-Emergence Protocol; conditions: Amaranthus retroflexus, post-emergence, 312 h; for pest or weed control at 15.625 g/ha: 15.625 g ai/ha, evaluated after 13 days (100=total damage to plant; 0=no damage to plant), read-out: Pigweed, Redroot damage rating; for pest or weed control at 62.5 g/ha: 62.5 g ai/ha, read-out: Pigweed, Redroot damage rating (100=total damage to plant; 0=no damage to plant); for pest or weed control at 62.5 g/ha / pest or weed control at 250 g/ha: evaluated after 13 days; for pest or weed control at 250 g/ha: 250 g ai/ha, read-out: damage to plant, Pigweed, Redroot (100=total damage to plant; 0=no damage to plant)
Summary of the method: as §2

[12] = system: velvetleaf (Abutilon theophrasti); assay: Test G Post-Emergence Protocol; conditions: Abutilon theophrasti, post-emergence, 312 h; for pest or weed control at 15.625 g/ha: 15.625 g ai/ha, evaluated after 13 days (100=total damage to plant; 0=no damage to plant), read-out: Velvetleaf damage rating; for pest or weed control at 62.5 g/ha: 62.5 g ai/ha, read-out: Velvetleaf damage rating (100=total damage to plant; 0=no damage to plant); for pest or weed control at 62.5 g/ha / pest or weed control at 250 g/ha: evaluated after 13 days; for pest or weed control at 250 g/ha: 250 g ai/ha, read-out: damage to plant, Velvetleaf (100=total damage to plant; 0=no damage to plant)
Summary of the method: as §2

| Structure (SMILES) | pest or weed control at 15.625 g/ha [1] | pest or weed control at 62.5 g/ha [1] | pest or weed control at 250 g/ha [1] | plant injury at 15.625 g/ha (corn (Zea mays) [2]) | plant injury at 62.5 g/ha (corn (Zea mays) [2]) | plant injury at 250 g/ha (corn (Zea mays) [2]) | pest or weed control at 15.625 g/ha [3] | pest or weed control at 62.5 g/ha [3] | pest or weed control at 250 g/ha [3] | pest or weed control at 15.625 g/ha [4] | pest or weed control at 62.5 g/ha [4] | pest or weed control at 250 g/ha [4] | pest or weed control at 15.625 g/ha [5] | pest or weed control at 62.5 g/ha [5] | pest or weed control at 250 g/ha [5] | pest or weed control at 15.625 g/ha [6] | pest or weed control at 62.5 g/ha [6] | pest or weed control at 250 g/ha [6] | pest or weed control at 15.625 g/ha [7] | pest or weed control at 62.5 g/ha [7] | also measured |
| --- | --- | --- | --- | --- | --- | --- | --- | --- | --- | --- | --- | --- | --- | --- | --- | --- | --- | --- | --- | --- | --- |
| CN1C[C@H](c2ccc(C(F)(F)F)cc2)[C@](C)(C(=O)Nc2cccc(F)c2F)C1=O (racemic) [Compound 1406] | 0% | 0% | 0% | 0% | 0% | 0% | 0% | 0% | 0% | 0% | 0% | 0% | 0% | 0% | 0% | 0% | 0% | 0% | 0% | 0% | pest or weed control at 250 g/ha [7]: 20%; plant injury at 15.625 g/ha (corn (Zea mays) [8]): 20%; plant injury at 62.5 g/ha (corn (Zea mays) [8]): 0%; plant injury at 250 g/ha (corn (Zea mays) [8]): 10%; pest or weed control at 15.625 g/ha [9]: 0%; pest or weed control at 62.5 g/ha [9]: 0%; pest or weed control at 250 g/ha [9]: 0%; pest or weed control at 15.625 g/ha [10]: 0%; pest or weed control at 62.5 g/ha [10]: 10%; pest or weed control at 250 g/ha [10]: 0%; pest or weed control at 15.625 g/ha [11]: 0%; pest or weed control at 62.5 g/ha [11]: 40%; pest or weed control at 250 g/ha [11]: 20%; pest or weed control at 15.625 g/ha [12]: 0%; pest or weed control at 62.5 g/ha [12]: 20%; pest or weed control at 250 g/ha [12]: 20% |
| CN1C[C@H](c2cccc(C(C)(C)C#N)c2)[C@@H](C(=O)Nc2ccccc2F)C1=O (racemic) [Compound 1407] | 10% | 80% | 90% | 0% | 0% | 0% | 50% | 80% | 90% | 0% | 0% | 0% | 0% | 0% | 0% | 0% | 0% | 0% | 10% | 40% | pest or weed control at 250 g/ha [7]: 60%; plant injury at 15.625 g/ha (corn (Zea mays) [8]): 0%; plant injury at 62.5 g/ha (corn (Zea mays) [8]): 10%; plant injury at 250 g/ha (corn (Zea mays) [8]): 20%; pest or weed control at 15.625 g/ha [9]: 0%; pest or weed control at 62.5 g/ha [9]: 70%; pest or weed control at 250 g/ha [9]: 70%; pest or weed control at 15.625 g/ha [10]: 0%; pest or weed control at 62.5 g/ha [10]: 20%; pest or weed control at 250 g/ha [10]: 30%; pest or weed control at 15.625 g/ha [11]: 20%; pest or weed control at 62.5 g/ha [11]: 10%; pest or weed control at 250 g/ha [11]: 30%; pest or weed control at 15.625 g/ha [12]: 10%; pest or weed control at 62.5 g/ha [12]: 20%; pest or weed control at 250 g/ha [12]: 20% |
